The test system of test [1] is renal proximal tubular epithelial cells (RPTEC). As to the kind of experiment: Cytotoxicity against normal RPTEC cells. The test is classed as cell-based, human. The following applies: ratio of growth IC50 values. On the procedure: Cell Culture. The human breast cancer cell lines SKBr3 and MDA-MB-468 were a gift from Dr. Neal Rosen (MSKCC). Cells were maintained in 1:1 mixture of DME:F12 supplemented with 2 mM glutamine, 50 units/mL penicillin, 50 […] and 10% heat inactivated fetal bovine serum (Gemini Bioproducts#100-10b) and incubated at 37° C., 5% CO2. Growth assays. Growth inhibition studies were performed using the sulforhodamine B assay as previously described.^29 In summary, experimental cultures were plated in microtiter plates (Nunc#167008). One column of wells was left without cells to serve as the blank control. Cells were allowed to attach overnight. The following day, growth medium having either drug or DMSO at twice the desired initial concentration was added to the plate in triplicate and was serially diluted at a 1:1 ratio in the microtiter plate. After 72 h of growth, the cell number in treated versus control wells was estimated after treatment with 50% trichloroacetic acid and staining with 0.4% sulforhodamine B in 1% acetic acid. […] Normal human renal proximal tubular epithelial (RPTEC) cells were purchased pre-seeded in 96-well plates (Clonetics, CC-3190). Upon receipt, cells were placed in a humidified incubator at 37° C., 5% CO2 and allowed to equilibrate for 3 h. Media was removed by suction and replaced with fresh media provided by the manufacturer. […]

The subject of test [2] is Hsp90 from SKBr3 cells. Description: Hsp90 competition assay, SKBr3 cell lysate. It counts as binding, human.
Method: (§1) When using cell lysates instead of recombinant protein, the assay measures binding to average. Hsp90 population found in cell specific complexes.
(§2) Hsp90 Competition Assay.Fluorescence polarization measurements were performed on an ANALYST® AD instrument (Molecular Devices, Sunnyvale, Calif.). […] The assay buffer (HFB) contained 20 mM HEPES (K) pH 7.3, 50 mM KCl, 5 mM MgCl2, 20 mM Na2MoO4, 0.01% NP40. Before each use, 0.1 mg/mL bovine gamma globulin (BGG) (Panvera Corporation, Madison, Wis.) and 2 mM DTT (Fisher Biotech, Fair Lawn, N.J.) were freshly added. […] Cell lysates were prepared rupturing cellular membranes by freezing at −70° C. and dissolving the cellular extract in HFB with added protease and phosphotase inhibitors. Organs were harvested from a healthy mouse and homogenized in HFB. Saturation curves were recorded in which GM-BODIPY (5 nM) was treated with increasing amounts of cellular lysates.
The test system of test [3] is Her2 in SKBr3 cells. As to the kind of experiment: Her2 assay (microtiter immunoassay of Her2 degradation). It counts as cell-based, human. The following applies: result in words. As for the experimental part: Her2 Assay. SKBr3 cells were plated in black, clear-bottom microtiter plates (Corning#3603) at 3,000 cells/well in growth medium (100 μl) and allowed to attach for 24 h at 37° C. and 5% CO2. Growth medium (100 μl) with drug or vehicle (DMSO) was carefully added to the wells, and the plates were placed at 37° C. and 5% CO2. Following 24 h incubation with drugs, wells were washed with ice-cold Tris buffer saline (TBS) containing 0.1% Tween 20 (TBST) (200 μl). A house vacuum source attached to an eight-channel aspirator was used to remove the liquid from the plates. Further, methanol (100 μl at −20° C.) was added to each well, and the plate was placed at 4° C. for 10 min. Methanol was removed by washing with TBST (2×200 μl). After further incubation at RT for 2 h with SUPERBLOCK® R (Pierce 37535) (200 μl), anti-Her-2 (c-erbB-2) antibody (Zymed Laboratories#28-004) (100 μl, 1:200 in SUPERBLOCK® R) was placed in each well. The plate was incubated overnight at 4° C. For control wells, 1:200 dilution of a normal rabbit IgG (Santa Cruz#SC-2027) in SUPERBLOCK® R was used. Each well was washed with TBST (2×200 μl) and incubated at RT for 2 h with an anti-rabbit HRP-linked antibody (Sigma, A-0545) (100 μl, 1:2000 in SuperBlockR). Unreacted antibody was removed by washing with TBST (3×200 μl), and the ECL™ Western blotting reagent (Amersham #RPN2106) (100 μL) was added. The plate was immediately read in an Analyst AD plate reader (Molecular Devices). Each well was scanned for 0.1 s. Readings from wells containing only control IgG and the corresponding HRP-linked secondary antibody were set as background and deducted from all measured values.

The test system of test [4] is SKBr3 breast cancer cells. Description: Growth inhibition, sulforhodamine B assay. The test is classed as cell-based, human. As to conditions: result in words. As for the experimental part: Cell Culture. The human breast cancer cell lines SKBr3 and MDA-MB-468 were a gift from Dr. Neal Rosen (MSKCC). Cells were maintained in 1:1 mixture of DME:F12 supplemented with 2 mM glutamine, 50 units/mL penicillin, 50 […] and 10% heat inactivated fetal bovine serum (Gemini Bioproducts#100-10b) and incubated at 37° C., 5% CO2. Growth assays. Growth inhibition studies were performed using the sulforhodamine B assay as previously described.^29 In summary, experimental cultures were plated in microtiter plates (Nunc#167008). One column of wells was left without cells to serve as the blank control. Cells were allowed to attach overnight. The following day, growth medium having either drug or DMSO at twice the desired initial concentration was added to the plate in triplicate and was serially diluted at a 1:1 ratio in the microtiter plate. After 72 h of growth, the cell number in treated versus control wells was estimated after treatment with 50% trichloroacetic acid and staining with 0.4% sulforhodamine B in 1% acetic acid. […] Normal human renal proximal tubular epithelial (RPTEC) cells were purchased pre-seeded in 96-well plates (Clonetics, CC-3190). Upon receipt, cells were placed in a humidified incubator at 37° C., 5% CO2 and allowed to equilibrate for 3 h. Media was removed by suction and replaced with fresh media provided by the manufacturer. Cells were then treated with either drugs or DMSO for 72 h and the IC50 values were determined as described above.

Test [5] has as its system MDA-MB-468 cells. Description: Anti-mitotic assay (Tg-3 microtiter immunoassay). It counts as cell-based, human. The following applies: MDA-MB-468 (Rb-defective) cells, 24 h. As for the experimental part: Anti-Mitotic Assay. Black, clear-bottom microtiter 96-well plates (Corning Costar#3603) were used to accommodate experimental cultures. MDA-MB-468 cells were seeded in each well at 8,000 cells per well in growth medium (100 μL), and allowed to attach overnight at 37° C. and 5% CO2. Growth medium (100 μL) with drug or vehicle (DMSO) was gently added to the wells, and the plates were incubated at 37° C. and 5% CO2 for 24 h. Wells were washed with ice-cold TBST (2×200 μL). A house vacuum source attached to an eight-channel aspirator was used to remove the liquid from the 96-well plates. Ice-cold methanol (100 μL) was added to each well, and the plate was placed at 4° C. for 5 min. Methanol was removed by suction and plates were washed with ice-cold TBST (2×200 μL). Plates were further incubated with SuperBlock® blocking buffer (Pierce #37535) (200 μL) for 2 h at RT. The Tg-3 antibody (gift of Dr. Davies, Albert Einstein College of Medicine) diluted 1:200 in SuperBlock® was placed in each well (100 μL) except the control column that was treated with control antibody (Mouse IgM, NeoMarkers, NC-1030-P). After 72 h, wells were washed with ice-cold TBST (2×200 μL). […] Un-reacted antibody was removed by washing the plates with ice-cold TBST (3×200 μL) for 5 min on a shaker. The ECL™ Western Blotting Detection Reagents 1 and 2 in 1:1 mix (100 μL) was placed in each well and the plates were read immediately in an Analyst AD plate reader (Molecular Devices). Luminescence readings were imported into SOFTmax PROR 4.3.1. Anti-mitotic activity was defined as a concentration dependent increase in luminescence readings in compound-treated wells as compared to DMSO only treated wells.

In test [6] the test system is Hsp90 complexes found in normal brain tissue. Description: Hsp90 competition assay, brain homogenate. The test is classed as binding, mouse. As to conditions: ratio of EC50 values.
Method: as §1, §2
The subject of test [7] is small cell lung cancer cell lines. Description: Apoptosis and cell death in SCLC cell lines. The test is classed as cell-based. The following applies: each of the SCLC cell lines.

On to `C#CCCCn1c(Sc2cc3c(cc2Br)OCO3)nc2c(N)ncnc21` [Example 1, 9-(Pent-4-ynyl)-8-(6-bromo-benzo[1,3]dioxol-5-ylsulfanyl)adenine], for which, in test [1], the RPTEC/SKBr3 was found to be 20.5. In test [2], the “Selectivity for tumor cells as opposed to normal heart, brain or lung tissue” value was “very high selectivity”. The “Her2 degradation in SKBr3 cells” value in test [3] was “induced Her2 degradation”. Further, the “Inhibition of growth in SKBr3 cells” value in test [4] is “inhibition of growth”. Also, the Anti-mitotic result in test [5] is “exhibited anti-mitotic activity and Yes”. Also, in test [6], the Brain/SKBr3 is listed as 2000. Besides, in test [7], the “Induction of apoptosis in SCLC cell lines” value is listed as “induced apoptosis”.

Values taken from patent US10676476B2, “Small-molecule HSP90 inhibitors” (Sloan-Kettering Institute for Cancer Research, priority 2005, dated 2020).
